Data from ChEMBL document CHEMBL1201862, “PubChem BioAssay data set” (2004).
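In this assay, cells in 96-well plates receive the compound at five concentrations for 48 hours. Endpoints are linearly interpolated between the surrounding concentrations. Abbreviation: GI50, concentration required for 50% inhibition of growth.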 Activity calls are given as the source filed them. Cut-off read from the data, not from the text of the source: active = GI50 up to about 1.1 µM and inactive = higher.

How the values were obtained:
Experiment in all cases: NCI-60 cell line screen, 48 h
NCI-H522 = system: NCI-H522
SF-268 = system: SF-268
SR = system: SR
SK-MEL-2 = system: SK-MEL-2
CCRF-CEM = system: CCRF-CEM
K562 = system: K562
HL-60 = system: HL-60
UACC-62 = system: UACC-62
IGROV-1 = system: IGROV-1
EKVX = system: EKVX
SK-OV-3 = system: SK-OV-3
OVCAR-4 = system: OVCAR-4
M14 = system: M14
SW-620 = system: SW-620
ACHN = system: ACHN
PC-3 = system: PC-3
SK-MEL-28 = system: SK-MEL-28
UO-31 = system: UO-31
NCI-H23 = system: NCI-H23
MOLT-4 = system: MOLT-4
HT-29 = system: HT-29
SF-539 = system: SF-539
T47D = system: T47D
HCC 2998 = system: HCC 2998
Hs-578T = system: Hs-578T
DU-145 = system: DU-145
786-0 = system: 786-0
HCT-15 = system: HCT-15
NCI/ADR-RES = system: NCI/ADR-RES
UACC-257 = system: UACC-257
NCI-H460 = system: NCI-H460
SNB-19 = system: SNB-19
SK-MEL-5 = system: SK-MEL-5
KM12 = system: KM12
SN12C = system: SN12C
NCI-H226 = system: NCI-H226
BT-549 = system: BT-549
LOX IMVI = system: LOX IMVI
HCT-116 = system: HCT-116
RPMI-8226 = system: RPMI-8226
SF-295 = system: SF-295
MDA-MB-435 = system: MDA-MB-435
MCF7 = system: MCF7
OVCAR-8 = system: OVCAR-8
COLO 205 = system: COLO 205
MDA-MB-231 = system: MDA-MB-231
HOP-62 = system: HOP-62
MDA-N = system: MDA-N
OVCAR-3 = system: OVCAR-3
CAKI-1 = system: CAKI-1
U-251 = system: U-251
A498 = system: A498
TK-10 = system: TK-10
Malme-3M = system: Malme-3M
OVCAR-5 = system: OVCAR-5
A549 = system: A549
RXF 393 = system: RXF 393
SNB-75 = system: SNB-75

Compound: O=C1CSC(c2ccc([N+](=O)[O-])cc2)N1c1ccc(-n2c(-c3ccccc3)nc3ccccc3c2=O)cc1 (stereo not drawn)
- GI50 (NCI-H522): 40.8 µM (inactive)
- GI50 (SF-268): 38.5 µM (inactive)
- GI50 (SR): 14.6 µM (inactive)
- GI50 (SK-MEL-2): > 100 µM (inactive)
- GI50 (CCRF-CEM): > 100 µM (inactive)
- GI50 (K562): 86.9 µM (inactive)
- GI50 (HL-60): > 100 µM (inactive)
- GI50 (UACC-62): 7.98 µM (inactive)
- GI50 (IGROV-1): > 100 µM (inactive)
- GI50 (EKVX): > 100 µM (inactive)
- GI50 (SK-OV-3): > 100 µM (inactive)
- GI50 (OVCAR-4): 21.3 µM (inactive)
- GI50 (M14): > 100 µM (inactive)
- GI50 (SW-620): > 100 µM (inactive)
- GI50 (ACHN): 77.8 µM (inactive)
- GI50 (PC-3): > 100 µM (inactive)
- GI50 (SK-MEL-28): > 100 µM (inactive)
- GI50 (UO-31): 2.56 µM (inactive)
- GI50 (NCI-H23): > 100 µM (inactive)
- GI50 (MOLT-4): 29.5 µM (inactive)
- GI50 (HT-29): > 100 µM (inactive)
- GI50 (SF-539): 42.9 µM (inactive)
- GI50 (T47D): 22.5 µM (inactive)
- GI50 (HCC 2998): 41 µM (inactive)
- GI50 (Hs-578T): > 100 µM (inactive)
- GI50 (DU-145): > 100 µM (inactive)
- GI50 (786-0): > 100 µM (inactive)
- GI50 (HCT-15): 41.3 µM
- GI50 (NCI/ADR-RES): 60.7 µM (inactive)
- GI50 (UACC-257): > 100 µM (inactive)
- GI50 (NCI-H460): > 100 µM (inactive)
- GI50 (SNB-19): > 100 µM (inactive)
- GI50 (SK-MEL-5): 82.2 µM (inactive)
- GI50 (KM12): 31.7 µM (inactive)
- GI50 (SN12C): > 100 µM (inactive)
- GI50 (NCI-H226): 2.96 µM (inactive)
- GI50 (BT-549): 16.7 µM (inactive)
- GI50 (LOX IMVI): > 100 µM (inactive)
- GI50 (HCT-116): 61.9 µM (inactive)
- GI50 (RPMI-8226): > 100 µM (inactive)
- GI50 (SF-295): > 100 µM (inactive)
- GI50 (MDA-MB-435): > 100 µM (inactive)
- GI50 (MCF7): 73.5 µM (inactive)
- GI50 (OVCAR-8): > 100 µM (inactive)
- GI50 (COLO 205): > 100 µM (inactive)
- GI50 (MDA-MB-231): 70.3 µM (inactive)
- GI50 (HOP-62): > 100 µM (inactive)
- GI50 (MDA-N): > 100 µM (inactive)
- GI50 (OVCAR-3): > 100 µM (inactive)
- GI50 (CAKI-1): 64.6 µM (inactive)
- GI50 (U-251): > 100 µM (inactive)
- GI50 (A498): > 100 µM (inactive)
- GI50 (TK-10): > 100 µM (inactive)
- GI50 (Malme-3M): > 100 µM (inactive)
- GI50 (OVCAR-5): > 10 µM (inactive)
- GI50 (A549): > 100 µM (inactive)

Compound: Nc1n[n+]([O-])c2ccc(Cl)cc2[n+]1[O-]
- GI50 (NCI-H522): 15.3 µM (inactive)
- GI50 (SF-268): 52.1 µM (inactive)
- GI50 (SR): 32.5 µM (inactive)
- GI50 (SK-MEL-2): 31.7 µM (inactive)
- GI50 (CCRF-CEM): 22.4 µM (inactive)
- GI50 (K562): 10.3 µM (inactive)
- GI50 (HL-60): 7.23 µM (inactive)
- GI50 (UACC-62): > 10 µM (inactive)
- GI50 (IGROV-1): 11.6 µM (inactive)
- GI50 (EKVX): 32.2 µM (inactive)
- GI50 (SK-OV-3): 16.7 µM (inactive)
- GI50 (RXF 393): 18.4 µM (inactive)
- GI50 (M14): 17.1 µM (inactive)
- GI50 (SW-620): 20.6 µM (inactive)
- GI50 (ACHN): 24.2 µM (inactive)
- GI50 (PC-3): 22.3 µM (inactive)
- GI50 (SK-MEL-28): 23.8 µM (inactive)
- GI50 (UO-31): 27.6 µM (inactive)
- GI50 (NCI-H23): 20.1 µM (inactive)
- GI50 (MOLT-4): 14.7 µM (inactive)
- GI50 (HT-29): 25.8 µM (inactive)
- GI50 (SF-539): 23 µM (inactive)
- GI50 (T47D): 24.7 µM (inactive)
- GI50 (HCC 2998): 16.4 µM (inactive)
- GI50 (Hs-578T): 13.9 µM (inactive)
- GI50 (DU-145): 46.1 µM (inactive)
- GI50 (SNB-75): 4.66 µM (inactive)
- GI50 (786-0): 31.7 µM (inactive)
- GI50 (HCT-15): 16.1 µM
- GI50 (NCI/ADR-RES): 36.3 µM (inactive)
- GI50 (UACC-257): 17.9 µM (inactive)
- GI50 (SNB-19): 34.5 µM (inactive)
- GI50 (SK-MEL-5): 4.07 µM (inactive)
- GI50 (KM12): 16.1 µM (inactive)
- GI50 (SN12C): 32.1 µM (inactive)
- GI50 (NCI-H226): 23.1 µM (inactive)
- GI50 (BT-549): 13.2 µM (inactive)
- GI50 (LOX IMVI): 25.1 µM (inactive)
- GI50 (HCT-116): 18.5 µM (inactive)
- GI50 (RPMI-8226): 14.7 µM (inactive)
- GI50 (SF-295): 23 µM (inactive)
- GI50 (MDA-MB-435): 21.4 µM (inactive)
- GI50 (MCF7): 16.9 µM (inactive)
- GI50 (OVCAR-8): > 10 µM (inactive)
- GI50 (COLO 205): 12.8 µM (inactive)
- GI50 (MDA-MB-231): 32 µM (inactive)
- GI50 (HOP-62): 11 µM (inactive)
- GI50 (MDA-N): 23.7 µM (inactive)
- GI50 (CAKI-1): 21.9 µM (inactive)
- GI50 (U-251): 19.8 µM (inactive)
- GI50 (A498): 26.9 µM (inactive)
- GI50 (TK-10): 37.2 µM (inactive)
- GI50 (Malme-3M): 18.3 µM (inactive)
- GI50 (OVCAR-5): 25.8 µM (inactive)
- GI50 (A549): 20.4 µM (inactive)

Compound: O=C1Nc2ccccc2/C1=N/Nc1ccccc1[N+](=O)[O-]
- GI50 (NCI-H522): 21.8 µM (inactive)
- GI50 (SF-268): 10 µM (inactive)
- GI50 (SR): 6.62 µM (inactive)
- GI50 (SK-MEL-2): > 100 µM (inactive)
- GI50 (CCRF-CEM): 91.6 µM (inactive)
- GI50 (K562): 66.5 µM (inactive)
- GI50 (HL-60): > 100 µM (inactive)
- GI50 (UACC-62): 63.8 µM (inactive)
- GI50 (IGROV-1): 0.185 µM (active)
- GI50 (EKVX): 0.706 µM (active)
- GI50 (SK-OV-3): 17.1 µM (inactive)
- GI50 (RXF 393): 35.6 µM (inactive)
- GI50 (OVCAR-4): 25.5 µM (inactive)
- GI50 (M14): 87.5 µM (inactive)
- GI50 (SW-620): 32.1 µM (inactive)
- GI50 (ACHN): 11.6 µM (inactive)
- GI50 (PC-3): 57 µM (inactive)
- GI50 (SK-MEL-28): 75.9 µM (inactive)
- GI50 (UO-31): 24.3 µM (inactive)
- GI50 (NCI-H23): 16.3 µM (inactive)
- GI50 (MOLT-4): 51.4 µM (inactive)
- GI50 (HT-29): > 100 µM (inactive)
- GI50 (SF-539): 9.89 µM (inactive)
- GI50 (T47D): 38.5 µM (inactive)
- GI50 (HCC 2998): 44.4 µM (inactive)
- GI50 (Hs-578T): 29.2 µM (inactive)
- GI50 (DU-145): 33.6 µM (inactive)
- GI50 (SNB-75): 16.5 µM (inactive)
- GI50 (786-0): 14.5 µM (inactive)
- GI50 (HCT-15): 55.5 µM
- GI50 (NCI/ADR-RES): 17 µM (inactive)
- GI50 (UACC-257): 56.1 µM (inactive)
- GI50 (NCI-H460): 19.9 µM (inactive)
- GI50 (SNB-19): 48.5 µM (inactive)
- GI50 (SK-MEL-5): 40.9 µM (inactive)
- GI50 (KM12): 33.8 µM (inactive)
- GI50 (SN12C): 40.7 µM (inactive)
- GI50 (NCI-H226): 1.67 µM (inactive)
- GI50 (BT-549): 49.1 µM (inactive)
- GI50 (LOX IMVI): 36.4 µM (inactive)
- GI50 (HCT-116): 25.9 µM (inactive)
- GI50 (RPMI-8226): 80.7 µM (inactive)
- GI50 (SF-295): 56.9 µM (inactive)
- GI50 (MDA-MB-435): > 100 µM (inactive)
- GI50 (MCF7): > 100 µM (inactive)
- GI50 (OVCAR-8): 23.3 µM (inactive)
- GI50 (COLO 205): 69.7 µM (inactive)
- GI50 (MDA-MB-231): 28.4 µM (inactive)
- GI50 (HOP-62): 19.3 µM (inactive)
- GI50 (MDA-N): > 100 µM (inactive)
- GI50 (OVCAR-3): 10.5 µM (inactive)
- GI50 (CAKI-1): 21.6 µM (inactive)
- GI50 (U-251): 15.5 µM (inactive)
- GI50 (A498): 32.8 µM (inactive)
- GI50 (TK-10): 69.2 µM (inactive)
- GI50 (OVCAR-5): 38.3 µM (inactive)
- GI50 (A549): 34.4 µM (inactive)
